# Test results from ChEMBL document CHEMBL6177932 (J Med Chem, 2024).
# Calls of active or inactive are those of the source. The calls are words filed in the database; no cut-off is given here.
# Experiments:
# [1] = tested on: 4T1; assay: Inhibition of class 1 HDAC in mouse 4T1 cells assessed as induction of H3K9 acetylation at 10 uM measured after 6 hrs by Western blot analysis; assay type: cell-based
# [2] = target: Vitamin D3 receptor (Mus musculus) (UniProt P48281); assay: In vivo agonist activity at VDR in mouse B16-F10 cells implanted C57BL/6 mouse assessed as induction of VDR gene in tumor at 5 mg/kg, ip administered 2 times at 24 hrs interval by RT-qPCR analysis; settings: time 48.0 hrs
# [3] = tested on: Mus musculus; assay: Immunomodulatory activity in mouse 4T1 cells implanted BALB/c mouse assessed as reduction in M2 macrophage infiltration into tumors at 1.5 to 5 mg/kg, ip administered daily for 18 days by arginase 1 staining based immunofluorescence microscopy; assay type: functional, organism-based; settings: dose 1.5-5 mg/kg, time 18.0 day
# [4] = target: T1, Protein deacetylase HDAC6 (Mus musculus) (UniProt Q9Z2V5); assay: Inhibition of HDAC6 in mouse 4T1 cells assessed as induction of tubulin acetylation at 10 uM measured after 6 hrs by Western blot analysis; assay type: cell-based
# T1 sequence (whole entry): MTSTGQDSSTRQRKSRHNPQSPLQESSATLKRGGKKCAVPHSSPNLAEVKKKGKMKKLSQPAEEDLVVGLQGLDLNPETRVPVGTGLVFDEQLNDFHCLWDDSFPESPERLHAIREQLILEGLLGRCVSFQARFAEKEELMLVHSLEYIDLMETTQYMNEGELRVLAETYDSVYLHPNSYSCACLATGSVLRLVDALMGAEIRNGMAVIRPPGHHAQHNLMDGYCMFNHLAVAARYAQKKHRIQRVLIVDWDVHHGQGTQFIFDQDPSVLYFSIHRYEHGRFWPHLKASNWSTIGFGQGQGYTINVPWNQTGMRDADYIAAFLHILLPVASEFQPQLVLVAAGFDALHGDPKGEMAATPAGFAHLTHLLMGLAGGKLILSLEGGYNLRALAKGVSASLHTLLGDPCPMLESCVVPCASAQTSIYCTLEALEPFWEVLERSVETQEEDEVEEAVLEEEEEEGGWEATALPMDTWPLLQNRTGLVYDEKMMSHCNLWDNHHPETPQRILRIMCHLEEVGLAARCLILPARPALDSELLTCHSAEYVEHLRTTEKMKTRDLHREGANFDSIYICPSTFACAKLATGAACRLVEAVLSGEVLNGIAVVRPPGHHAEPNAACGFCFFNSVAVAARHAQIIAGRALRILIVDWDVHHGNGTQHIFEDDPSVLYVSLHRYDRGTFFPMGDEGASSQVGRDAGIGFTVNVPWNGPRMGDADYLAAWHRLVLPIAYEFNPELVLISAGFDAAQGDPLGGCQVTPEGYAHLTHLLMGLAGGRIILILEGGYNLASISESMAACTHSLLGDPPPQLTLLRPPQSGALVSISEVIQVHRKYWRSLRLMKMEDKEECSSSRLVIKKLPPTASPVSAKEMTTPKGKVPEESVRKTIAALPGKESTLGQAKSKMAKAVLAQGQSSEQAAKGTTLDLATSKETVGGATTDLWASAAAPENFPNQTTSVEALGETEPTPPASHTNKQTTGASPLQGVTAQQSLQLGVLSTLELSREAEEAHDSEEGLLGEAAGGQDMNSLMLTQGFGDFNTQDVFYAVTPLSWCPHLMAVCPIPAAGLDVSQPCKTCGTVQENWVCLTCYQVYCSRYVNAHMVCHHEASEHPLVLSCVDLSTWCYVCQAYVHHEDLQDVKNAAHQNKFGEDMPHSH
# [5] = tested on: Mus musculus; assay: Immunomodulatory activity in mouse 4T1 cells implanted BALB/c mouse assessed as induction of Il1a gene expression at 1.5 to 5 mg/kg, ip administered daily for 18 days by RT-qPCR analysis; assay type: functional, organism-based; settings: dose 1.5-5 mg/kg, time 18.0 day
# [6] = Toxicity in 4T1 cells implanted BALB/c mouse assessed as body weight loss at 1.5 to 5 mg/kg, ip administered daily for 18 days; assay type: organism-based; settings: in vivo, 432 h, dose 1.5-5 mg/kg, time 18 day
# [7] = target: T1, Protein deacetylase HDAC6 (Mus musculus); assay: Inhibition of HDAC6 in mouse 4TO7 cells assessed as induction of tubulin acetylation at 10 uM measured after 6 hrs by Western blot analysis; assay type: cell-based
# [8] = target: Vitamin D3 receptor (Mus musculus) (UniProt P48281); assay: In vivo agonist activity at VDR in mouse B16-F10 cells implanted C57BL/6 mouse assessed as induction of Cyp24al gene in tumor at 5 mg/kg, ip administered 2 times at 24 hrs interval by RT-qPCR analysis; settings: time 48.0 hrs
# [9] = tested on: B16-F10; assay: Cytotoxicity against mouse B16-F10 cells assessed as reduction in cell viability at 0.01 to 100 uM measured after 24 hrs by RealTime-glo cell viability assay; assay type: functional, cell-based; settings: dose 0.01-100 µM
# [10] = tested on: Mus musculus; assay: Immunomodulatory activity in mouse 4T1 cells implanted BALB/c mouse assessed as reduction in Ccl5 gene expression at 1.5 to 5 mg/kg, ip administered daily for 18 days by RT-qPCR analysis; assay type: functional, organism-based; settings: dose 1.5-5 mg/kg, time 18.0 day
# [11] = Toxicity in 4T1 cells implanted BALB/c mouse assessed as stress at 1.5 to 5 mg/kg, ip administered daily for 18 days; assay type: organism-based; settings: in vivo, 432 h, dose 1.5-5 mg/kg, time 18 day
# [12] = target: T2, Vitamin D3 receptor (Mus musculus) (UniProt P48281); assay: Agonist activity at VDR in mouse 4TO7 cells assessed as induction of Cyp24a1 gene at 0.1 to 10 uM measured after 24 hrs by RT-qPCR analysis; assay type: cell-based; settings: filed as agonist, dose 0.1-10 µM
# T2 sequence (whole entry): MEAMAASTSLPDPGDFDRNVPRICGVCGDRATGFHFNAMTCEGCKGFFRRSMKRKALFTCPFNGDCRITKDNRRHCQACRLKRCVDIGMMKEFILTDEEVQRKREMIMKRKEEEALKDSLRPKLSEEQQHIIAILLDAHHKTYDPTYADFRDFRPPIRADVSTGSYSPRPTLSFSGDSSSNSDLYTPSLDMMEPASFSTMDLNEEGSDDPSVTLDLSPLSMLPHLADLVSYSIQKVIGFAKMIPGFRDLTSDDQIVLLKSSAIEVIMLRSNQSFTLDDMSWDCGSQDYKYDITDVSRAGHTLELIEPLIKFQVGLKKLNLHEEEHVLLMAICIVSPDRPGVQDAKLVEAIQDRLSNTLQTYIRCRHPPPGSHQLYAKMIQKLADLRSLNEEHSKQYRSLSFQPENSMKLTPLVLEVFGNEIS
# [13] = tested on: 4TO7; assay: Inhibition of class 1 HDAC in mouse 4TO7 cells assessed as induction of H3K9 acetylation at 10 uM measured after 6 hrs by Western blot analysis; assay type: cell-based
# [14] = Toxicity in mouse B16-F10 cells implanted C57BL/6 mouse at 5 mg/kg, ip administered daily for 28 days; assay type: organism-based; settings: in vivo, time 28 day
# [15] = tested on: 4T1; assay: Inhibition of class 1 HDAC in mouse 4T1 cells assessed as induction of H3K27 acetylation at 10 uM measured after 6 hrs by Western blot analysis; assay type: cell-based
# [16] = tested on: B16-F10; assay: Antitumor activity against mouse B16-F10 cells implanted in C57BL/6 mouse assessed as reduction in tumor burden at 5 mg/kg, ip administered every second day for 18 days; assay type: functional, organism-based; settings: time 18.0 day
structure (smiles),measurement,setting,value
CCC(CC)(c1ccc(C(=O)NCCCCC(=O)NO)cc1)c1ccc(OCC(O)C(C)(C)C)c(C)n1 (stereo unspecified),inhibition,[1],Active
same,Activity,[2],Active
same,Activity,[3],Active; Compound Was Most Efficacious At Reducing The M2 Macrophages
same,inhibition,[4],Active; Most Efficacious Than Saha
same,Activity,[5],Active
same,Activity,[6],Non-toxic
same,inhibition,[7],Active; Induced Higher Levels Of Acetylation Than Saha
same,Activity,[8],Active
same,Activity,[9],Active
same,Activity,[10],Active
same,Activity,[11],Non-toxic
same,Activity,[12],Active
same,inhibition,[13],Active; Induced Higher Levels Of Acetylation Than Saha
same,Activity,[14],Non-toxic
same,inhibition,[15],Active
same,Activity,[16],Active
